In the METLIN SMRT retention time set (Domingo-Almenara et al. 2019):

Assay: gradient 5% acetonitrile 3 min, to 50% in 2 min, to 85% in 15 min, held 3 min, 100 µL/min
Settings: column: Zorbax Extend-C18 2.1 x 50 mm; eluents: water / acetonitrile, 0.1% formic acid
In short: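 Each retention time is based on an adduct peak selected computationally and verified by manual inspection. Measurements used HPLC–quadrupole time-of-flight mass spectrometry in positive and negative ionization mode on mixtures of ~100 pure standards. Chromatography ran on a Zorbax Extend-C18 column (2.1 × 50 mm, 1.8 μm) at 100 μL/min with water and acetonitrile, each containing 0.1% formic acid, and dead and dwell volumes of 40 μL and 900 μL.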

| RP-LC retention time | SMILES |
| --- | --- |
| 795 s | Cc1ccc(NC(=O)CSc2nc(N3CCCCC3)nc3ccccc23)cc1C |
| 822 s | O=C(Cn1cnc2c(nnn2Cc2ccc(F)cc2)c1=O)N1CCCc2ccccc21 |
| 1350 s | Cc1occc1C(=O)Nc1nc(-c2ccc(CC(C)C)cc2)cs1 |
| 883 s | CSCc1csc(NC(=O)COc2ccc(Cl)cc2)n1 |
| 893 s | O=C(NC1CCCCC1)c1cc2c(s1)CCN(C(=O)c1ccc(F)cc1)C2 |
| 590 s | O=C(COc1ccc(NC(=O)C2CC2)cn1)NC1CCN(Cc2ccccc2)CC1 |
| 716 s | Cc1ccc(-n2ncc3c(C)nnc(SCC(=O)N4CCC(C)CC4)c32)cc1C |
| 559 s | CCn1c(=O)c(=O)n(CC(=O)NCCN2CCCC2)c2cccnc21 |
| 915 s | COc1cc(C2C(=O)N(C3CCCC3)CC(=O)N2Cc2ccco2)ccc1OC(C)C (stereo unspecified) |
| 904 s | CCCCC(=O)N1CC(c2nc(-c3ccc(F)cc3)no2)C2(CCOCC2)C1 (stereo unspecified) |
| 734 s | Cc1c(Cl)cccc1-c1ccc(CNCC2CCCO2)o1 (stereo unspecified) |
